# In patent publication US20260200920A1, “SUBSTITUTED AMINOPYRIDINE COMPOUNDS FOR USE AS AKT1 INHIBITORS” (Atavistik Bio, Inc., priority 2023, published 2026):
# Tests used:
# [1] = target: T1, human recombinant kinase full-length AKT1 E17K (Homo sapiens, UniProt P31749, E17K); experiment: AKT1 E17K kinase assay (TR-FRET, Lance); format: biochemical; conditions: 0.6 nM AKT1 E17K, 50 nM Ulight-CREBtide, either 50 μM ATP or 2 mM ATP, 60 min at RT
# T1 construct: Purified human recombinant kinase full-length AKT1 E17K was expressed in insect cells; made in house; host or cells: insect cells
# T1 sequence (P31749 whole entry E17K): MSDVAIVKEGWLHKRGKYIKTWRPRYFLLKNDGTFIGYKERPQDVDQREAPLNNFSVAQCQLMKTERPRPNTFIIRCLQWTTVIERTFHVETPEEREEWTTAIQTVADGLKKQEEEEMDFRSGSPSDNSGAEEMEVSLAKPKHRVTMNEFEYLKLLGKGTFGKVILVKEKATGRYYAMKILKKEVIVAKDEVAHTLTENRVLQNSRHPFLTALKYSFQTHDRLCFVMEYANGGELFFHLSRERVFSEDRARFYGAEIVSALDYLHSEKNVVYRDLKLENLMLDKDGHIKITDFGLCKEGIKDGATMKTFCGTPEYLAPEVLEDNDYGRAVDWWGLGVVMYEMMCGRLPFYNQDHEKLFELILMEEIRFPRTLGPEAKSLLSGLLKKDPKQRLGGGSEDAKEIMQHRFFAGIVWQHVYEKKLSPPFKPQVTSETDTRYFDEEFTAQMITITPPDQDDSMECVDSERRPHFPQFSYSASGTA
# Experimental: AKT1 E17K kinase assay: Inhibitory effects of compounds on AKT1 E17K were undertaken in a 10-pt dose response kinase activity assay measuring phospho-peptide product formation based on TR-FRET signal as described in the following paragraph.
# (§1) Purified human recombinant kinase full-length AKT1 E17K was expressed in insect cells and activated in vitro by PDPK1. Ulight™-CREBtide (PerkinElmer, catalog number TRF0107) was used as the peptide substrate. The reaction buffer consisted of 50 mM HEPES pH 7.5, 10 mM MgCl2, 0.01% Triton X-100, 0.01% BSA, 2 mM DTT, 0.6 nM AKT1 E17K, 50 nM Ulight™-CREBtide and either 50 μM ATP or 2 mM ATP. The compound solution was prepared as 10 mM DMSO stock. For the assay, a 1.3 serial dilution 10-pt dose response of test compounds, in duplicate, for each concentration were dispensed into a 384-well plate (Corning, catalog number 4513). Final DMSO concentration in the assay was 1%. The enzyme mixture (5 μL, 1.2 nM) were added and the mixture was incubated for 15 min at RT prior to the start of the kinase reaction by the addition of 5 μL substrate mixture (100 nM Ulight™-CREBtide). The reaction was stopped after 60 min of incubation at RT by the addition of 10 μL of Detection Mix (PerkinElmer, #CR97-100) consisting of Europium-anti-phospho-CREB (Ser133) (Perkin Elmer, catalog number TRF0200). Incubation with the detection mix for a further 60 min allowed binding of antibody to the phospho-Ulight™ CREBtide. The fluorescence emissions at 620 nm and 665 nm after excitation at 350 nm was measured using Envision reader. The ratio of the emissions at 665 nm and at 620 nm provided the measure for the amount of phosphorylated CREBtide product of AKT1 E17K kinase activity. To determine the IC50 values, the data was normalized (enzyme reaction without inhibitor=0% inhibition, all other assay components but no enzyme=100% inhibition) and IC50 values were calculated by a 4-parameter fit using an in-house developed protocol.
# Table 9 assigns each compound a code for potency in the AKT1 E 17K kinase assay: A, B, or C. According to the code, A represents an IC50 value <500 nM; B represents an IC50 value from ≥500 nM to <2000 nM; and C represents an IC50 value ≥2000 nM.
# [2] = target: T2, human recombinant kinase full-length wildtype AKT1 (Homo sapiens, UniProt P31749); experiment: AKT1 kinase assay (wildtype, TR-FRET, Lance); format: biochemical; conditions: 0.6 nM wildtype AKT1, 50 nM Ulight-CREBtide, either 50 μM ATP or 2 mM ATP, 60 min at RT
# T2 construct: Purified human recombinant kinase full-length wildtype AKT1 was expressed in insect cells; made in house; host or cells: insect cells
# T2 sequence (P31749 whole entry): as the sequence (P31749 whole entry E17K) above, with K17E counted along it
# Experimental: AKT1 kinase assay: Inhibitory effects of compounds on wildtype AKT1 were undertaken in a 10-pt dose response kinase activity assay measuring phospho-peptide product formation based on TR-FRET signal as described in the following paragraph.
# as §1, with “full-length wildtype” for “full-length”, “AKT1” for “AKT1 E17K”, “AKT1,50” for “AKT1 E17K, 50”, “1:3” for “1.3”
# The symbol +++ represents an IC50 value <20 μM; the symbol ++ represents an IC50 value from ≥20 μM to 80 μM.
SMILES,IC50 [1],IC50 [2]
"Nc1ncccc1-c1nc2ccc(-c3ccccc3)nc2n1-c1ccc(N[C@H]2CC[C@H](C(=O)O)CC2)nc1 (single isomer, unassigned) [Compound I-14, (1r,4r)-4-((5-(2-(2-aminopyridin-3-yl)-5-phenyl-3H-imidazo[4,5-b]pyridin-3-yl)pyridin-2-yl)amino)cyclohexane-1-carboxylic acid]",≥ 2000 nM,< 20000 nM
"Nc1ncccc1-c1nc2ccc(-c3ccccc3)nc2n1-c1ccc(N[C@H]2CC[C@@H](C(=O)O)CC2)nc1 (single isomer, unassigned) [Compound I-15, (1s,4s)-4-((5-(2-(2-aminopyridin-3-yl)-5-phenyl-3H-imidazo[4,5-b]pyridin-3-yl)pyridin-2-yl)amino)cyclohexane-1-carboxylic acid]",≥ 2000 nM,< 20000 nM
"Nc1ncccc1-c1nc2ccc(-c3ccccc3)nc2n1-c1ccc(CN(CC(F)(F)F)[C@H]2CC[C@H](C(=O)O)CC2)cc1 (single isomer, unassigned) [Compound I-188, (1r,4r)-4-((4-(2-(2-aminopyridin-3-yl)-5-phenyl-3H-imidazo[4,5-b]pyridin-3-yl)benzyl)(2,2,2-trifluoroethyl)amino)cyclohexane-1-carboxylic acid]",≥ 2000 nM,< 20000 nM
"Nc1ncccc1-c1nc2ccc(-c3ccccc3)nc2n1-c1ccc(CN(CC(F)(F)F)[C@H]2CC[C@@H](C(=O)O)CC2)cc1 (single isomer, unassigned) [Compound I-189, (1s,4s)-4-((4-(2-(2-aminopyridin-3-yl)-5-phenyl-3H-imidazo[4,5-b]pyridin-3-yl)benzyl)(2,2,2-trifluoroethyl)amino)cyclohexane-1-carboxylic acid]",≥ 2000 nM,< 20000 nM
CC1(C)C[C@@H](C(=O)O)CC[C@@H]1CN1CC(c2ccc(-n3c(-c4cccnc4N)nc4ccc(-c5ccccc5)nc43)cc2)C1 (stereo in doubt) [Compound I-145],500 to 2000 nM,< 20000 nM
CC(C)(C(=O)O)[C@@H]1CCN(Cc2ccc(-n3c(-c4cccnc4N)nc4ccc(-c5ccccc5)nc43)cc2)C1 (stereo in doubt) [Compound I-174],500 to 2000 nM,< 20000 nM
CC(C)(C(=O)O)[C@H]1CCN(Cc2ccc(-n3c(-c4cccnc4N)nc4ccc(-c5ccccc5)nc43)cc2)C1 (stereo in doubt) [Compound I-175],500 to 2000 nM,< 20000 nM
Nc1ncccc1-c1nc2ccc(-c3ccccc3)nc2n1-c1ccc(C2CCN(C[C@H]3CCC[C@@H](C(=O)O)C3)CC2)cc1 (stereo in doubt) [Compound I-191],500 to 2000 nM,< 20000 nM
Nc1ncccc1-c1nc2ccc(-c3ccccc3)nc2n1-c1ccc(C2CCN(C[C@@H]3CCC[C@H](C(=O)O)C3)CC2)cc1 (stereo in doubt) [Compound I-192],500 to 2000 nM,< 20000 nM
"Nc1ncccc1-c1nc2ccc(-c3ccccc3)nc2n1-c1ccc(NC(=O)C2CCC(C(=O)O)CC2)cc1F (centres unmarked) [Compound I-5, 4-((4-(2-(2-aminopyridin-3-yl)-5-phenyl-3H-imidazo[4,5-b]pyridin-3-yl)-3-fluorophenyl)carbamoyl)cyclohexane-1-carboxylic acid]",500 to 2000 nM,< 20000 nM

# Continued, values first:
IC50 [1],IC50 [2],SMILES
500 to 2000 nM,< 20000 nM,"Nc1ncccc1-c1nc2ccc(-c3ccccc3F)nc2n1-c1ccc([C@H]2CCN(C[C@H]3CC[C@@H](C(=O)O)CC3)C2)cc1 (single isomer, unassigned) [Compound I-228]"
500 to 2000 nM,< 20000 nM,"Nc1ncccc1-c1nc2ccc(-c3ccccc3F)nc2n1-c1ccc([C@@H]2CCN(C[C@H]3CC[C@@H](C(=O)O)CC3)C2)cc1 (single isomer, unassigned) [Compound I-229]"
500 to 2000 nM,< 20000 nM,"Nc1ncccc1-c1nc2ccc(-c3ccccc3F)nc2n1-c1ccc([C@H]2CCN(C[C@H]3CC[C@H](C(=O)O)CC3)C2)cc1 (single isomer, unassigned) [Compound I-230]"
< 500 nM,< 20000 nM,"Nc1ncccc1-c1nc2ccc(-c3ccccc3F)nc2n1-c1ccc([C@@H]2CCN(C[C@H]3CC[C@H](C(=O)O)CC3)C2)cc1 (single isomer, unassigned) [Compound I-231]"
500 to 2000 nM,< 20000 nM,"Nc1ncccc1-c1nc2ccc(-c3ccccc3)nc2n1-c1ccc([C@H]2CCN(C[C@H]3CC[C@H](C(=O)O)CC3)C2)cc1 (single isomer, unassigned) [Compound I-232]"
< 500 nM,< 20000 nM,"Nc1ncccc1-c1nc2ccc(-c3ccccc3)nc2n1-c1ccc([C@@H]2CCN(C[C@H]3CC[C@H](C(=O)O)CC3)C2)cc1 (single isomer, unassigned) [Compound I-233]"
< 500 nM,< 20000 nM,CC1(C)C[C@H](C(=O)O)CC[C@@H]1CN1CC(c2ccc(-n3c(-c4cccnc4N)nc4ccc(-c5ccccc5)nc43)cc2)C1 (stereo in doubt) [Compound I-144]
< 500 nM,< 20000 nM,CN(Cc1ccc(-n2c(-c3cccnc3N)nc3ccc(-c4ccccc4)nc32)cc1)[C@@H]1CC[C@@H](C(=O)O)C1 (stereo in doubt) [Compound I-171]
< 500 nM,< 20000 nM,"Nc1ncccc1-c1nc2ccc(-c3ccccc3)nc2n1-c1ccc(NC(=O)C2CCC(C(=O)O)C2)cc1 (centres unmarked) [Compound I-1, 3-((4-(2-(2-aminopyridin-3-yl)-5-phenyl-3H-imidazo[4,5-b]pyridin-3-yl)phenyl)carbamoyl)cyclopentane-1-carboxylic acid]"
< 500 nM,< 20000 nM,Nc1ncccc1-c1nc2ccc(-c3ccccc3)nc2n1-c1ccc(NC(=O)[C@H]2CC[C@H](C(=O)O)CC2)cc1 [Compound I-2]
< 500 nM,< 20000 nM,"Nc1ncccc1-c1nc2ccc(-c3ccccc3)nc2n1-c1ccc(NC(=O)[C@H]2CC[C@@H](C(=O)O)CC2)cc1 [Compound I-3, cis-4-[[4-[2-(2-amino-3-pyridyl)-5-phenyl-imidazo[4,5-b]pyridin-3-yl]phenyl]carbamoyl]cyclohexanecarboxylic acid]"
< 500 nM,< 20000 nM,"Nc1ncccc1-c1nc2ccc(-c3ccccc3)nc2n1-c1ccc(NC(=O)C2CCCC(C(=O)O)C2)cc1 (centres unmarked) [Compound I-4, 3-[[4-[2-(2-amino-3-pyridyl)-5-phenyl-imidazo[4,5-b]pyridin-3-yl]phenyl]carbamoyl]cyclohexanecarboxylic acid]"
